The structures appear in SMILES notation.

This assay has as its system Aβ42 production. The assay is described as follows: Quantification of Aβ peptide in culture of neurons from rat fetus brain (Aβ ELISA). As to conditions: Neuron, 72 h; rat primary neuronal culture (cerebral cortex, embryonic day 18 Wistar rats); medium collected three days after addition of the compound; Aβx-42 ELISA; read-out: Aβ42 production reducing effect IC50. Type of assay: cell-based. The method in brief: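 Primary cortical neurons from embryonic day 18 Wistar rats were cultured 4 days, then exposed to compound in Neurobasal/B27 without 2-ME, final DMSO ≤1%. After three days, medium was collected and Aβx-42 measured undiluted by sandwich ELISA.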
For orientation: IC50 means the concentration needed to halve the response being measured. `NC1=N[C@@]2(c3cc(NC(=O)c4cnc(OCF)cn4)ccc3F)CCO[C@H](CF)[C@H]2CS1` (relative stereo) [Example 144, N-[3-((4aS*,5S*,8aS*)-2-amino-5-fluoromethyl-4a,5,7,8-tetrahydro-4H-6-oxa-3-thia-1-azanaphthalen-8a-yl)-4-fluorophenyl]-5-fluoromethoxypyrazine-2-carboxamide]: the IC50 is 11 nM.

In the case of `NC1=N[C@@]2(c3cc(NC(=O)c4cnc(OC(F)F)cn4)ccc3F)CCO[C@H](CF)[C@H]2CS1` (relative stereo) [Example 145, N-[3-((4aS*,5S*,8aS*)-2-amino-5-fluoromethyl-4a,5,7,8-tetrahydro-4H-6-oxa-3-thia-1-azanaphthalen-8a-yl)-4-fluorophenyl]-5-difluoromethoxypyrazine-2-carboxamide], the IC50 worked out at 3 nM.

In the case of `NC1=N[C@@]2(c3cc(NC(=O)c4cnc(C(F)F)cn4)ccc3F)CCO[C@H](CF)[C@H]2CS1` (relative stereo) [Example 146, N-[3-((4aS*,5S*,8aS*)-2-amino-5-fluoromethyl-4a,5,7,8-tetrahydro-4H-6-oxa-3-thia-1-azanaphthalen-8a-yl)-4-fluorophenyl]-5-difluoromethylpyrazine-2-carboxamide], the IC50 is 32 nM.

With `NC1=N[C@@]2(c3cc(NC(=O)c4ccc(OC(F)F)cn4)ccc3F)CCO[C@H](CF)[C@H]2CS1` (relative stereo) [Example 147, N-[3-((4aS*,5S*,8aS*)-2-amino-5-fluoromethyl-4a,5,7,8-tetrahydro-4H-6-oxa-3-thia-1-azanaphthalen-8a-yl)-4-fluorophenyl]-5-difluoromethoxypyridine-2-carboxamide], the IC50 was found to be 12 nM.

For the molecule `NC1=N[C@@]2(c3cc(NC(=O)c4ccc(Cl)cn4)ccc3F)CCO[C@H](CF)[C@H]2CS1` (relative stereo) [Example 148, N-[3-((4aS*,5S*,8aS*)-2-amino-5-fluoromethyl-4a,5,7,8-tetrahydro-4H-6-oxa-3-thia-1-azanaphthalen-8a-yl)-4-fluorophenyl]-5-chloropyridine-2-carboxamide], the half-inhibitory concentration (IC50) was found to be 9 nM.

Regarding `NC1=N[C@@]2(c3cc(NC(=O)c4ccc(C(F)(F)F)cn4)ccc3F)COC[C@H]2CS1` (relative stereo) [Example 165, N-[3-((4aS*,7aS*)-2-amino-4a,5-dihydro-4H-furo[3,4-d][1,3]thiazin-7a-yl)-4-fluorophenyl]-5-trifluoromethylpyridine-2-carboxamide], the half-inhibitory concentration (IC50) came to 12 nM.

As for `NC1=N[C@@]2(c3cc(NC(=O)c4ccc(Br)cn4)ccc3F)COC[C@H]2CS1` (relative stereo) [Example 166, N-[3-((4aS*,7aS*)-2-amino-4a,5-dihydro-4H-furo[3,4-d][1,3]thiazin-7a-yl)-4-fluorophenyl]-5-bromopyridine-2-carboxamide], the half-inhibitory concentration (IC50) was found to be 4 nM.

On to `NC1=N[C@@]2(c3cc(NC(=O)c4ccc(OC(F)F)cn4)ccc3F)COC[C@H]2CS1` (relative stereo) [Example 167, N-[3-((4aS*,7aS*)-2-amino-4a,5-dihydro-4H-furo[3,4-d][1,3]thiazin-7a-yl)-4-fluorophenyl]-5-difluoromethoxypyridine-2-carboxamide], for which the IC50 turned out to be 6 nM.

On to `CO[C@@H]1CC[C@H]2CSC(N)=N[C@@]2(c2cc(NC(=O)c3ccc(C#N)cn3)ccc2F)C1` (relative stereo) [Example 202, N-[3-((4aR*,7R*,8aS*)-2-amino-7-methoxy-4,4a,5,6,7,8-hexahydrobenzo[d][1,3]thiazin-8a-yl)-4-fluorophenyl]-5-cyanopyridine-2-carboxamide], for which the IC50 was 3 nM.

Turning to `CO[C@H]1CC[C@]2(c3cc(NC(=O)c4ccc(C#N)cn4)ccc3F)N=C(N)SC[C@@H]2C1` (relative stereo) [Example 204, N-[3-((4aR*,6S*,8aS*)-2-amino-6-methoxy-4,4a,5,6,7,8-hexahydrobenzo[d][1,3]thiazin-8a-yl)-4-fluorophenyl]-5-cyanopyridine-2-carboxamide], the concentration for half-maximal inhibition (IC50) came out at 23 nM.

Take `CO[C@@H]1CC[C@]2(c3cc(NC(=O)c4ccc(C#N)cn4)ccc3F)N=C(N)SC[C@@H]2C1` (relative stereo) [Example 206, N-[3-((4aR*,6R*,8aS*)-2-amino-6-methoxy-4,4a,5,6,7,8-hexahydrobenzo[d][1,3]thiazin-8a-yl)-4-fluorophenyl]-5-cyanopyridine-2-carboxamide]: the 50% inhibitory concentration (IC50) was 2 nM.

As to `CO[C@@H]1CC[C@]2(c3cc(NC(=O)c4cnc(C(F)F)cn4)ccc3F)N=C(N)SC[C@@H]2C1` (relative stereo) [Example 207, N-[3-((4aR*,6R*,8aS*)-2-amino-6-methoxy-4,4a,5,6,7,8-hexahydrobenzo[d][1,3]thiazin-8a-yl)-4-fluorophenyl]-5-difluoromethylpyrazine-2-carboxamide], the half-maximal inhibitory concentration (IC50) is 3 nM.

For `N#Cc1ccc(C(=O)Nc2ccc(F)c([C@]34CC[C@H](F)C[C@H]3CSC(N)=N4)c2)nc1` (relative stereo) [Example 215, N-[3-((4aR*,6S*,8aS*)-2-amino-6-fluoro-4,4a,5,5,6,7,8-hexahydrobenzo[d][1,3]thiazin-8a-yl)-4-fluorophenyl]-5-cyanopyridine-2-carboxamide], the concentration for half-maximal inhibition (IC50) was 10 nM.

As to `CO[C@H]1C[C@H]2CSC(N)=N[C@@]2(c2cc(-c3cccnc3F)ccc2F)C1` (relative stereo) [Example 243, (±)-(4aR*,6S*,7aS*)-7a-[2-Fluoro-5-(2-fluoro-pyridin-3-yl)phenyl-6-methoxy-4,4a,5,6,7,7a-hexahydrocyclopenta[d][1,3]thiazin-2-ylamine], the IC50 was found to be 69 nM.

Take `NC1=N[C@@]2(c3cc(NC(=O)c4ccc(Cl)cn4)ccc3F)CCCC[C@H]2CS1` (single isomer, unassigned) [Example 3, (+)-N-[3-((4aR.*,8aS*)-2-amino-4,4a,5,6,7,8-hexahydrobenzo[d][1,3]thiazin-8a-yl)-4-fluorophenyl]-5-chloropyridine-2-carboxamide]: the concentration for half-maximal inhibition (IC50) was 9 nM.

Take `NC1=N[C@@]2(c3cc(NC(=O)c4cnc(OC(F)F)cn4)ccc3F)CCC[C@H]2CS1` (single isomer, unassigned) [Example 20, N-[3-((4aR*,7aS*)-2-amino-4a,5,6,7-tetrahydro-4,1-cyclopenta[d][1,3]thiazin-7a-yl-4-fluorophenyl]-5-difluoromethoxypyrazine-2-carboxamide]: the IC50 was determined as 5 nM.

Consider `N#Cc1ccc(C(=O)Nc2ccc(F)c([C@]34CCC[C@H]3CSC(N)=N4)c2)nc1` (single isomer, unassigned) [Example 22, N-[3-((4aR*,7aS*)-2-amino-4a,5,6,7-tetrahydro-4H-cyclopenta[d][1,3]thiazin-7a-yl)-4-fluorophenyl]-5-cyanopyridine-2-carboxamide], for which the IC50 worked out at 5 nM.

In the case of `NC1=N[C@@]2(c3cc(NC(=O)c4cnc(OCF)cn4)ccc3F)COC[C@H]2CS1` (single isomer, unassigned) [Example 27, N-[3-((7S*,7aS*)-2-amino-4a,5-dihydro-4H-furo[3,4-d][1,3]thiazin-7a-yl)-4-fluorophenyl]-5-fluoromethoxypyrazine-2-carboxamide], the IC50 was determined as 11 nM.

In the case of `N#Cc1ccc(C(=O)Nc2ccc(F)c([C@]34CCOC[C@H]3CSC(N)=N4)c2)nc1` (single isomer, unassigned) [Example 28, N-[3-((4aS*,8aS*)-2-amino-4a,7,8-tetrahydro-4H-6-oxa-3-thia-1-azanaphthalen-8a-yl)-4-fluorophenyl]-5-cyanopyridine-2-carboxamide], the half-inhibitory concentration (IC50) turned out to be 12 nM.

As to `NC1=N[C@@]2(c3cc(NC(=O)c4cnc(Cl)cn4)ccc3F)CCCC[C@H]2CS1` (single isomer, unassigned) [Example 104, N-[3-((4aR*,8aS*)-2-amino-4,4a,5,6,7,8-hexahydrobenzo[d][1,3]thiazin-8a-yl)-4-fluorophenyl]-5-chloropyrazine-2-carboxamide], the concentration for half-maximal inhibition (IC50) was 212 nM.

Consider `NC1=N[C@@]2(c3cc(NC(=O)c4ncc(F)cc4F)ccc3F)CCCC[C@H]2CS1` (single isomer, unassigned) [Example 105, N-[3-((4aR*,8aS*)-2-amino-4,4a,5,6,7,8-hexahydrobenzo[d][1,3]thiazin-8a-yl)-4-fluorophenyl]-3,5-difluoropyridine-2-carboxamide], for which the half-maximal inhibitory concentration (IC50) stood at 121 nM.

As for `NC1=N[C@@]2(c3cc(NC(=O)c4ccc(C(F)(F)F)cn4)ccc3F)CCCC[C@H]2CS1` (single isomer, unassigned) [Example 106, N-[3-((4aR*,8aS*)-2-amino-4,4a,5,6,7,8-hexahydrobenzo[d][1,3]thiazin-8a-yl)-4-fluorophenyl]-5-trifluoromethylpyridine-2-carboxamide], the IC50 came out at 88 nM.

For the molecule `COc1cnc(C(=O)Nc2ccc(F)c([C@]34CCCC[C@H]3CSC(N)=N4)c2)cn1` (single isomer, unassigned) [Example 107, N-[3-((4aR*,8aS*)-2-amino-4,4a,5,6,7,8-hexahydrobenzo[d][1,3]thiazin-8a-yl)-4-fluorophenyl]-5-methoxypyrazine-2-carboxamide], the IC50 is 17 nM.

On to `NC1=N[C@@]2(c3cc(NC(=O)c4ccc(C#CC5CC5)cn4)ccc3F)CCC[C@H]2CS1` (single isomer, unassigned) [Example 132, N-[3-((4aR*,7aS*)-2-amino-4a,5,6,7-tetrahydro-4H-cyclopenta[d][1,3]thiazin-7a-yl)-4-fluorophenyl]-5-cyclopropylethynyl-pyridine-2-carboxamide], for which the half-inhibitory concentration (IC50) came out at 44 nM.

Turning to `NC1=N[C@@]2(c3cc(NC(=O)c4ccc(-c5nccs5)cn4)ccc3F)CCC[C@H]2CS1` (single isomer, unassigned) [Example 133, N-[3-((4aR*,7aS*)-2-amino-4a,5,6,7-tetrahydro-4H-cyclopenta[d][1,3]thiazin-7a-yl)-4-fluorophenyl]-5-thiazol-2-yl-pyridine-2-carboxamide], the IC50 was found to be 63 nM.

Values taken from patent US20100317850A1 (priority 2008, published 2010).
